Measurements: patent US8932627B2, “Liposomal compositions of glucocorticoid and glucocorticoid derivatives” (Yissum Research Development Company of the Hebrew …, priority 2004, dated 2015)

Legend:
[1] = test system: BCL-1 (mouse B cell lymphoid leukemia); assay: Survival of BCL-1 tumor bearing mice; format: in vivo, BALB/C mice
Procedure: In a further assay, survival of BCL-1 (mouse B cell lymphoid leukemia) tumor bearing mice was determined. […] Then, the mice were divided into groups and treated at days 5, 9, 12, 16, by i.v. injections, with the following treatment formulations: […]
Group I—5 mg/kg BW free-MPS;
Group II—25 mg/kg BW free-MPS;
Group III—5 mg/kg BW SSL-MPS;
Group IV—50 mg/kg BW SSL-MPS.

[2] = test system: J6456 lymphoma cells (mouse T-cell lymphoma); assay: Survival of mice injected i.p. with J6456 lymphoma cells; format: in vivo, BALB/C mice; conditions: free-MPS days 5, 9, 12, SSL-MPS days 5, 9, 12, 16
Procedure: At day 1 of the experiment BALB/C mice were injected i.p. with 1 million J6456 lymphoma cells (mouse T-cell lymphoma) then mice were divided into groups and treated by i.v. injections with free-MPS or SSL-MPS according to the following treatment schedule (Table 9).

[3] = State of aggregation (turbidity, light scattering at 90°) of MPS as function of pH; format: physicochemical
Procedure: Aggregation of MPS was determined from the change in turbidity measured as intensity of light scattered at 90° to excitation beam using a spectrofluormeter under conditions that MPS lack absorbance (excitation and emission at the same wavelength Ex=600 nm Em=600 nm). There is a large increase in the light scattered by MPS solution/dispersion due to formation of aggregates.
The intensity of scattered light (at 90° to the excitation), also defined as turbidity is proportional to concentration and to the size of the aggregates. [Zuidam, N. J. and Barenholz, Y., Biochim. Biophys. Acta 1368:115-128 (1998)]. The state of aggregation of MPS was tested in the following manner: To quartz cuvette MPS (2 ml) at concentration of ˜6.5 mg/ml MPS was added. The solution was tittered with HCl (1.756M) and light scattering using excitation and emission at (both at 600 nm with attenuation of 1%) and pH of the solution was monitored.

[4] = test system: BCL-1 lymphoma cells; assay: Sensitivity of BCL-1 cell line to MPS; format: cell-based, mouse
[5] = test system: Experimental Autoimmune Encephalomyelitis (EAE); assay: Treatment of severe disease burden in acute EAE (PLP induced); format: in vivo, SJL female mice
Procedure: In order to boost the immune system Pertussis Toxin (PT) 150 ng were injected intraperitoneally (i.p.) to the mice on the first day and 48 hours later.
Each mouse was examined daily for clinical signs of EAE using the following Table 4:
For mice showing a severe disease burden (determined by summing the scores of each of the 10 mice in the group and calculating the mean score per day, according to the following equation: Σtotal score of each mouse per day/number of mice in the group) a different treatment was applied. Specifically, after immunization as described above, mice were treated with 50 mg/kg BW SSL-MPS (days 10, 14, 18) or with free-MPS 50 mg/kg BW (days 10, 14, 18) or dextrose 5% (days 10, 14, 18). For each group, the incidence, MMS=mean maximal score; MDD=mean disease duration (days); MDO=mean day of onset and mean score were determined Table 7. Further, for each group the mean clinical scores at each time point was determined (FIG. 6B) as well as the survival curve (FIG. 6A).

[6] = 26° C.; MPS 0.785-30 mM
Procedure: Surface tension was measured using μtrouge S (Kibron Inc., Helsinki Finland). A solution containing GC derivative (300 μL) was placed in the well after calibration and zeroing of the sensor using pure water and air. The measurement was performed at 26° C.

[7] = Precipitation of MPS by calcium ion (Ca-acetate solution); format: physicochemical; conditions: pH 4.5; 600 mOsm Ca-acetate, 63° C., 5 mg/ml MPS, 40 minutes
Procedure: To 600 mOsm Ca-acetate solution at 63° C. and at different pH points MPS was added at final concentration of 5 mg/ml, then mixed solution was incubated for 40 minutes after which the solution was centrifuged and the supernatant was analyzed using HPLC.

[8] = test system: Experimental Autoimmune Encephalomyelitis (EAE); assay: Treatment of acute EAE (PLP 139-151 induced) with SSL-MPS, single injection; format: in vivo, SJL female mice; conditions: 50 mg/kg BW, 1 injection day 14, follow up 3 weeks
[9] = ex vivo stability, after 24 hours, passively loaded liposomes; cited from earlier work

Molecule: C[C@H]1C[C@@H]2[C@H]([C@@H](O)C[C@@]3(C)[C@H]2CC[C@]3(O)C(=O)COC(=O)CCC(=O)[O-])[C@@]2(C)C=CC(=O)C=C12.[Na+] [MPS, methylprednisolone sodium hemisuccinate]
- Survival median ([1]; 5 mg/kg BW i.v. days 5, 9, 12, 16): 19
- Survival median ([1]; 25 mg/kg BW i.v. days 5, 9, 12, 16): 19
- Median survival ([2]; 15 mg/kg BW i.v.): 16
- Median survival ([2]; 50 mg/kg BW i.v.): 16
- state of aggregation (turbidity) ([3]; acidic pH, FIG. 1A): it aggregates
- state of aggregation (turbidity) ([3]; pH 7.2, FIG. 1A): non-aggregated water soluble
- sensitivity of the cell line ([4]; BCL-1): highly sensitive
- IC50 ([4]; BCL-1 lymphoma cells (B cell line)): in the nmolar range
- #dead ([5]; 50 mg/kg BW days 10, 14, 18): 3
- Incidence ([5]; 50 mg/kg BW days 10, 14, 18): 9/9
- MDD (mean disease duration) ([5]; 50 mg/kg BW days 10, 14, 18): 10.11 ± 1.92 days
- MDO (mean day of onset) ([5]; 50 mg/kg BW days 10, 14, 18): 12.67 ± 0.65
- MMS (mean maximal score) ([5]; 50 mg/kg BW days 10, 14, 18): 4.44 ± 0.50
- Mean Score ([5]; 50 mg/kg BW days 10, 14, 18): 2.62 ± 0.208
- survival / mortality ([5]; 50 mg/kg BW days 10, 14, 18, FIG. 6A): there was mortality
- mean clinical score at day 19 ([5]; 50 mg/kg BW days 10, 14, 18, FIG. 6B): ~3
- surface activity (surface tension) [6]: surface active at all concentrations used
- % MPS precipitated [7]: 97%
- Incidence [8]: 7/9
- MDD (mean disease duration) [8]: 10.9 ± 2.7 days
- MDO (mean day of onset) [8]: 16.7 ± 1.83
- MMS (mean maximal score) [8]: 2.35 ± 0.39
- Mean Score [8]: 0.861 ± 0.105

Molecule: triamcinolone acetonide phosphate
- acidic corticosteroid retained by the liposome [9]: more than 75%
